Data: PMC4667898, “Antibody Binding Selectivity: Alternative Sets of Antigen Residues Entail High-Affinity Recognition” (PLoS ONE, 2015)

System: scFv1F4-QL34S
Test: PEPperCHIP peptide array, spot fluorescence after staining with DyLight680-labeled scFv
Type: binding
Experimental: ScFv1F4-QL34S labeling with DyLight680, peptide array synthesis and binding detection were performed by PEPperPRINT GmbH (PEPperCHIP® Platform Technology, Heidelberg, Germany). The permutation scans were carried out on the WT decapeptide ^6TAMFQDPQER^15 and on its variants. In a permutation scan, the effect on binding of replacing each of the ten peptide positions by all amino-acids except cysteine is analyzed, which requires the synthesis of 190 spot peptides per starting peptide (19 amino-acids at 10 positions). Two arrays were prepared, each containing the permutation analysis of the WT peptide and of 19 variants. All peptides were synthesized in duplicate (7,600 peptide spots per array). The peptide arrays were stained with the DyLight680-labeled scFv1F4-QL34S. The permutation scans of the WT peptide and of variant ^6TAMFQDPFER^15 are highlighted by white frames. The staining pattern of array A (S1 Fig) was published previously.
The objective was to investigate whether a starting amino-acid replacement modifies the effect on binding of amino-acid changes at neighboring positions. For example the effect of a deleterious starting change could be compensated by a replacement elsewhere. Residue interdependences may also be found in the case of non-deleterious starting replacements. They can be identified by comparing the permutation patterns of the WT and variant peptides. Arrays A [28] (S1 Fig) and B (Fig 1) each contained the permutation scans of the WT decapeptide ^6TAMFQDPQER^15 and of nineteen variants. Data recorded for the WT and 14 variant peptides of array A were described previously. The data presented here include all permutation scans in array B (WT and 19 variants), together with those of 5 variants in array A. One of these was performed twice in array A (peptide ^6TRMFQDVQER^15). Therefore the data include the permutations scans of the WT and of 23 variant decapeptides (Table 1), each of them being recorded at least in duplicate.
The repeatability of fluorescence measurements can be assessed because: i/ all peptides were synthesized in duplicate (Fig 1), ii/ the duplicated scan of peptide ^6TRMFQDVQER^15 was repeated in array A and iii/ several peptides occur repeatedly within a same or in different families. Array B contained 3,222 different peptides, with 105 peptides repeated between 6 and 46 times.
The signal intensity ranges differed in the two arrays: 6,800 and 18,100 for the scFv—WT decapeptide interaction in arrays A and B, respectively (Table 1). However normalization of the intensity values with respect to the mean value of the scFv1F4-WT peptide intensity in each panel, produced well-superimposed patterns (Fig 2). […] In addition, assuming that T6 is not part of the epitope, the variability observed for this position (standard deviation = 0.12) provides insight into the statistical significance of the normalized intensities.

[1] = array B, mean intensity relative to WT decapeptide of array B
[2] = array A, mean intensity relative to WT decapeptide of array A

Row | Sequence | % of WT signal [1] [%] | other results
1 | TAMFQDVQER [starting variant of the WT decapeptide on array B] | 16 | 
2 | TAMFQDPSFM [starting variant of the WT decapeptide on array B] | 2 | 
3 | TAMFQDPQEQ [starting variant of the WT decapeptide on array B] | 24 | 
4 | TAMDQDPQER [starting variant of the WT decapeptide on array B] | 3 | 
5 | TAMFQDVFER [starting variant of the WT decapeptide on array A] |  | % of WT signal [2]: 14%; % of WT signal (array A, mean intensity relative to WT decapeptide of array A, listed as P12V-Q13F): exceeded 10%
6 | TAMFQDPYER [starting variant of the WT decapeptide on array B] | 37 | 
7 | TAMFQDHQER [starting variant of the WT decapeptide on array B] | 4 | 
8 | TAMFQDVYER [starting variant of the WT decapeptide on array B] | 16 | % of WT signal (array B, mean intensity relative to WT decapeptide of array B, listed as P12V-Q13Y): exceeded 10%
9 | TRMFQDVQER [starting variant of the WT decapeptide on array A] |  | % of WT signal [2]: 5%
10 | TAMFKDPQER [starting variant of the WT decapeptide on array B] | 2 | 
11 | TAMFQDYQER [starting variant of the WT decapeptide on array B] | 7 | averaged fluorescence signal as % of that recorded with the WT peptide (array not stated at the place (arrays A and B)): < 10%
12 | TAMLADPQER [starting variant of the WT decapeptide on array B] | 3 | 
13 | TAMFQDPQEA [starting variant of the WT decapeptide on array B] | 6 | 
14 | TAMFADPQER [starting variant of the WT decapeptide on array B] | 2 | 
15 | TAMFQSPYER [starting variant of the WT decapeptide on array A] |  | % of WT signal [2]: 21%; % of WT signal (array A, mean intensity relative to WT decapeptide of array A, listed as D11S-Q13Y): exceeded 10%
16 | TGSFQRASFM [starting variant of the WT decapeptide on array B] | 2 | 
17 | TAMLQDPQER [starting variant of the WT decapeptide on array B] | 3 | 
18 | TAMFQDPFER [starting variant of the WT decapeptide on array B] | 68 | 
19 | TAMFQDPQER [WT decapeptide, residues 6-15 of HPV16-E6 oncoprotein, array-synthesized] | 100 | 
20 | TAMFQTPQER [starting variant of the WT decapeptide on array B] | 3 | 
21 | TAMFQDQQER [starting variant of the WT decapeptide on array B] | 5 | 
22 | TGSFQDPQER [starting variant of the WT decapeptide on array B] | 66 | % of WT signal (array B, mean intensity relative to WT decapeptide of array B, listed as A7G-M8S): exceeded 10%
23 | TQMFQDPYER [starting variant of the WT decapeptide on array A] |  | % of WT signal [2]: 23%; % of WT signal (array A, mean intensity relative to WT decapeptide of array A, listed as A8Q-Q13Y): exceeded 10%
24 | TAMFQRAQER [starting variant of the WT decapeptide on array B] | 3 | 
